In assay [1] the target is T1, catalytic domain (JH1, amino acids 826-1132) of human JAK2 (Homo sapiens, UniProt O60674).
T1 construct: catalytic domain (JH1, amino acids 826-1132) of human JAK2; FLAG (N); biotin (biotinylated); purchased Carna Biosciences 08-445-20N; host or cells: baculovirus expression system
In words: JAK2 LanthaScreen JH1 Binding Assay. The settings on record: JAK2 JH1 1.5 nM, 50 nM tracer, 2 hours at 25° C.; read-out: JH1 BIND. An outline of the steps: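 TR-FRET tracer-displacement format: compound IC50 from four-parameter curves after 2 h at 25° C. Reaction held 1.5 nM biotinylated, FLAG-tagged JH1 (aa 826-1132), 50 nM tracer, 0.5 nM Streptavidin-Tb, pH 7.5 Tris buffer; 2 mM ATP set nonspecific background.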

The target of assay [2] is catalytic domain (JH1, amino acids 808-1132) of human JAK2 (Homo sapiens, UniProt O60674). In words: JAK2 HTRF Enzyme Activity Assay. The settings on record: ATP 30 µM, 60 minutes at 25° C.; read-out: V617F ENZ 30 UM. Type of assay: biochemical.
Sequence of catalytic domain (JH1, amino acids 808-1132) of human JAK2 (O60674 808-1132 limits assumed): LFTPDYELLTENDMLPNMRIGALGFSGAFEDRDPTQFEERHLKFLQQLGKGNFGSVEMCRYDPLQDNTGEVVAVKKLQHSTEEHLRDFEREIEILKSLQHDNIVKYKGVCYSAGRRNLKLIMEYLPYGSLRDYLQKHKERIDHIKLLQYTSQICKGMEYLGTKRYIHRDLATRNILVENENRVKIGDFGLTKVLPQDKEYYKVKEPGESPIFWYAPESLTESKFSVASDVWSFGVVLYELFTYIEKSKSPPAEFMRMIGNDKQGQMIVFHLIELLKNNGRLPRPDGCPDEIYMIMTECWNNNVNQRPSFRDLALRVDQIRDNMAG
The target in assay [3] is T2, pseudo-kinase domain (JH2, amino-acids 536-812) of human Wild Type JAK2 (Homo sapiens, UniProt O60674, F794H/W659A/W777A).
T2 construct: pseudo-kinase domain (JH2, amino-acids 536-812 with 3 surface mutations W659A, W777A, F794H); His (C); purchased BPS Bioscience 79463; host or cells: baculovirus expression system
T2 sequence (O60674 536-812 W659A/W777A/F794H): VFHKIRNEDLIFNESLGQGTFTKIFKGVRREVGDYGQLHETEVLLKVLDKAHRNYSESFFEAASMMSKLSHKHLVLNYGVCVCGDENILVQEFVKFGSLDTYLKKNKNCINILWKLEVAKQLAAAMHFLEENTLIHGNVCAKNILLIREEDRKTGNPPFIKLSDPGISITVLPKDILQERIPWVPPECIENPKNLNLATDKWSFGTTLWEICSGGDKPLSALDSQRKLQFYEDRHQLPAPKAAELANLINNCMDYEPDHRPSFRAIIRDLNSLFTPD
The experiment in a line: JAK2 LanthaScreen JH2-WT Binding Assay. The settings on record: JAK2 JH2-WT 0.145 nM, 50 nM tracer, 1 hour at 25° C.; read-out: JH2 BIND WT. The method, boiled down: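 Compounds, serially diluted, were mixed with 0.145 nM JH2 domain, 50 nM tracer and 0.25 nM streptavidin-Tb cryptate, then incubated 1 hour at 25° C before LanthaScreen reading. Wells containing 2 mM ATP defined non-specific binding. Four-parameter dose-response curves gave IC50.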

The target of assay [4] is T3, pseudo-kinase domain (JH2, amino-acids 536-812) of human V617F mutant JAK2 (Homo sapiens, UniProt O60674, F794H/V617F/W659A/W777A).
T3 construct: pseudo-kinase domain (JH2, amino-acids 536-812 with 3 surface mutations W659A, W777A, F794H); His (C); purchased BPS Bioscience 79498; host or cells: baculovirus expression system
T3 sequence (O60674 536-812 V617F/W659A/W777A/F794H): as the sequence (O60674 536-812 W659A/W777A/F794H) above, with V82F counted along it
In words: JAK2 LanthaScreen JH2-V617F Binding Assay. The settings on record: JAK2 JH2-V617F 0.26 nM, 50 nM tracer, 1 hour at 25° C.; read-out: JH2 BIND V617F. The method, boiled down: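 Binding was measured as TR-FRET displacement of 50 nM tracer from 0.26 nM biotinylated His-Avi protein, incubated one hour at 25° C; IC50 from a four-parameter fit.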

Drawing on US20240317744A1, “Bicyclic Ureas As Kinase Inhibitors” (Incyte Corporation, priority 2023, published 2024), this text covers IC50 for 7 compounds.

T1 sequence (O60674 826-1132): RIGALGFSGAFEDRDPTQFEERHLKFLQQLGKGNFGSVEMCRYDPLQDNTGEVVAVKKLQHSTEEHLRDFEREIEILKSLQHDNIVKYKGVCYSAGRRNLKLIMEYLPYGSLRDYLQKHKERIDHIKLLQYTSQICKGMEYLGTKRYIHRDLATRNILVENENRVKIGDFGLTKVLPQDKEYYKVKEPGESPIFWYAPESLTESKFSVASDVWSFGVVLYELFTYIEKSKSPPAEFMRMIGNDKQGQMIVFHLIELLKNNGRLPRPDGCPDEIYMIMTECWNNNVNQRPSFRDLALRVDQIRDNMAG

As for `[2H]C([2H])([2H])n1c(=O)n([C@H]2CC[C@@](C)(NC(=O)C3CC3)CC2)c2cc(Nc3ccc4c(n3)c(-c3cnn(C(F)(F)F)c3)nn4CC(C)(C)O)ncc21` [Example 120, N-((1s,4s)-4-(6-((1-(2-Hydroxy-2-methylpropyl)-3-(1-(trifluoromethyl)-1H-pyrazol-4-yl)-1H-pyrazolo[4,3-b]pyridin-5-yl)amino)-3-(methyl-d3)-2-oxo-2,3-dihydro-1H-imidazo[4,5-c]pyridin-1-yl)-1-methylcyclohexyl)cyclopropanecarboxamide], the IC50 in assay [1] is over 1000 nM; in assay [2], over 1000 nM; in assay [3], at most 10 nM; in assay [4], at most 10 nM.
Turning to `[2H]C([2H])([2H])n1c(=O)n([C@@H]2CC[C@@H](NC(=O)OC)C2)c2cc(Nc3cc(C(=O)N4CCOCC4)c4cc(C)cc(C(F)(F)F)c4n3)ncc21` [Example 135, Methyl ((1R,3R)-3-(3-(methyl-d3)-6-((6-methyl-4-(morpholine-4-carbonyl)-8-(trifluoromethyl)quinolin-2-yl)amino)-2-oxo-2,3-dihydro-1H-imidazo[4,5-c]pyridin-1-yl)cyclopentyl)carbamate], the IC50 in assay [1] is over 1000 nM; in assay [2], 500 to 1000 nM; in assay [3], at most 10 nM; in assay [4], at most 10 nM.
Take `[2H]C([2H])([2H])n1c(=O)n([C@@H]2CC[C@@H](NC(=O)OC)C2)c2cc(Nc3cc(C(C)(C)O)cc(-c4ncc(C(C)(C)O)s4)n3)ncc21` [Example 144, Methyl ((1R,3R)-3-(6-((4-(2-hydroxypropan-2-yl)-6-(5-(2-hydroxypropan-2-yl)thiazol-2-yl)pyridin-2-yl)amino)-3-(methyl-d3)-2-oxo-2,3-dihydro-1H-imidazo[4,5-c)pyridin-1-yl)cyclopentyl)carbamate]: the IC50 is over 1000 nM in assay [1], over 1000 nM in assay [2], at most 10 nM in assay [3] and at most 10 nM in assay [4].
With `[2H]C([2H])([2H])n1c(=O)n([C@@H]2CC[C@@H](NC(=O)OC)C2)c2cc(Nc3cc(C(C)(C)O)cc(-c4ncc(C(O)(C(F)(F)F)C(F)(F)F)s4)n3)ncc21` [Example 145, Methyl ((1R,3R)-3-(6-((6-(5-(1,1,1,3,3,3-hexafluoro-2-hydroxypropan-2-yl)thiazol-2-yl)-4-(2-hydroxypropan-2-yl)pyridin-2-yl)amino)-3-(methyl-d3)-2-oxo-2,3-dihydro-1H-imidazo[4,5-c]pyridin-1-yl)cyclopentyl)carbamate], the IC50 was over 1000 nM in assay [1], over 1000 nM in assay [2], at most 10 nM in assay [3] and at most 10 nM in assay [4].
For `[2H]C([2H])([2H])n1c(=O)n([C@@H]2CC[C@@H](NC(=O)OC)C2)c2cc(Nc3cc(-c4cnccc4C(F)(F)F)cc(-c4ccc(C(F)F)s4)n3)ncc21` [Example 154, Methyl ((1R,3R)-3-(6-((6′-(5-(difluoromethyl)thiophen-2-yl)-4-(trifluoromethyl)-[3,4′-bipyridin]-2′-yl)amino)-3-(methyl-d3)-2-oxo-2,3-dihydro-1H-imidazo[4,5-c]pyridin-1-yl)cyclopentyl)carbamate], the IC50 in assay [1] is over 1000 nM; in assay [2], over 1000 nM; in assay [3] it was at most 10 nM; in assay [4], at most 10 nM.
Turning to `[2H]C([2H])([2H])n1c(=O)n([C@]2([2H])CC[C@@H](NC(=O)OC)C2)c2cc(Nc3cc(C(C)(C)O)cc(-c4ncc(C(F)(F)F)s4)n3)ncc21` [Example 156, Methyl ((1R,3R)-3-(6-((4-(2-hydroxypropan-2-yl)-6-(5-(trifluoromethyl)thiazol-2-yl)pyridin-2-yl)amino)-3-(methyl-d3)-2-oxo-2,3-dihydro-1H-imidazo[4,5-c]pyridin-1-yl)cyclopentyl-3-d)carbamate], the IC50 in assay [1] is over 1000 nM; in assay [2] it was over 1000 nM; in assay [3], at most 10 nM; in assay [4], at most 10 nM.
In the case of `[2H]C([2H])([2H])n1c(=O)n([C@@H]2CC[C@@H](NC(=O)OC)C2)c2cc(Nc3cc(C4CCN(C)CC4)cc(-c4ncc(C(F)(F)F)s4)n3)ncc21` [Example 157, Methyl ((1R,3R)-3-(3-(methyl-d3)-6-((4-(1-methylpiperidin-4-yl)-6-(5-(trifluoromethyl)thiazol-2-yl)pyridin-2-yl)amino)-2-oxo-2,3-dihydro-1H-imidazo[4,5-c]pyridin-1-yl)cyclopentyl)carbamate], the IC50 was over 1000 nM in assay [1], over 1000 nM in assay [2], at most 10 nM in assay [3] and at most 10 nM in assay [4].
